Experiments:
[1] = tested on: TMD-8 cells; experiment: Inhibition assay of tumor cell activity (cell viability); type: cell-based, human; details: single agent, 48 hours, AVG
Procedure: Inhibition Assay of Tumor Cell Activity:
Tumor cells (TMD-8, DoHH2 and WSU-DLCL2) were transferred and attached to 96-well plates. After one night, blank buffer and selected concentrations (0.01 nM-100 μM) of the test compound solution were added. After 48 hours incubation, CellTiter-Go was added to lyse the cells. Recording luminescent signal and calculate the percent inhibition of cell viability.
TMD-8 is a sensitive human diffuse large B-cell lymphoma cell line, and DoHH2 is a more difficult to treat human follicular lymphoma cell line, while WSU-DLCL2 is a multi-drug resistant (MDR) human non-Hodgkin's lymphoma cell line. Drug combination therapies provided better efficacies in all three tumor models than single targeted agent alone.

[2] = Toxicokinetic (TK) study in rats, 28-day; type: in vivo, rat; details: for Cmax / Tmax / AUC(0-t): rat, in vivo; for AUC(0-t): read-out: AUC0-24 h
[3] = tested on: TMD-8 lymphoma xenograft; experiment: TMD-8 lymphoma xenograft SCID mouse model; type: in vivo; details: BID; for Antitumor effect: Oral
Procedure: Compounds (Compounds 45 and others) alone and its combinations were evaluated against tumor growth in xenograft models in female CB-17 SCID mice. The TMD-8, DoHH2, WSU-DLCL2 tumor cells were maintained in vitro as a suspension culture in RPMI-1640 medium supplemented with 10% heat inactivated fetal calf serum at 37° C. in an atmosphere of 5% CO2 in air. The tumor cells were routinely subcultured twice weekly. The cells growing in an exponential growth phase were harvested and counted for tumor inoculation. Each mouse was inoculated subcutaneously at the right flank with the tumor cells (10×10^6) in 0.2 ml of PBS with Matrigel (1:1) for tumor development. The treatments were started after the average tumor size reached approximately 100-200 mm^3. Each group consisted of 6-10 tumor-bearing mice. The testing article (vehicle, compound or combination) was orally administrated to the mice according to the predetermined doses for 14-days or 21-days. Animal body weight and tumor volume were measured every 2-or 3-days throughout the treatment.

[4] = Pharmacokinetic study in Beagle dogs; type: in vivo; details: dog, plasma
Procedure: […] Each group has three animals. For group of intravenous administration, blood samples were collected at pre-dose, 0.033, 0.083, 0.25, 0.5, 1, 3, 6, 9, 24 h post-dose; for group of oral administration, blood samples were collected at pre-dose, 0.083, 0.25, 0.5, 1, 3, 6, 9, 24 h post-dose. After blood collection, HPLC-MS/MS was applied to determine plasma concentrations of the compound.

[5] = Toxicity and toxicokinetic studies, 28-day rat and dog; details: 28-day rat and dog studies
Source text: Toxicity and toxicokinetic (TK) studies of the compounds can be performed by well known methods.

[6] = Pharmacokinetic study in male SD rats; type: in vivo; details: rat, plasma
Procedure: A pharmacokinetic study in male SD rats: Male SD rats for pharmacokinetic study within 24 hours were divided into two groups: intravenous administration and oral administration. Each group has three animals. For group of intravenous administration, blood samples were collected at pre-dose, 0.0833, 0.167, 0.5, 1, 2, 4, 8, 24 h post-dose; for group of oral administration, blood samples were collected at pre-dose, 0.167, 0.5, 1, 2, 4, 8, 24 h post-dose. After blood collection, HPLC-MS/MS was applied to determine plasma concentrations of the compound.

[7] = female, 40 mg/kg, Study Day 1, Female
[8] = female, 40 mg/kg, Study Day 28, Female
[9] = female, 100 mg/kg, Study Day 1, Female
[10] = female, 100 mg/kg, Study Day 28, Female
[11] = female, 200 mg/kg, Study Day 1, Female
[12] = female, 200 mg/kg, Study Day 28, Female
[13] = male, 40 mg/kg, Study Day 1, Male
[14] = male, 40 mg/kg, Study Day 28, Male
[15] = male, 100 mg/kg, Study Day 1, Male
[16] = male, 100 mg/kg, Study Day 28, Male
[17] = male, 200 mg/kg, Study Day 1, Male
[18] = male, 200 mg/kg, Study Day 28, Male
[19] = IV, 2 mg/kg, mean, read-out: Vdss

With `C=CC(=O)N1CC[C@@H](n2nc(-c3ccc(Oc4c(F)c(F)cc(F)c4F)cc3F)c3c(N)ncnc32)C1` [Compound 45, 1-((R)-3-(4-amino-3-(2-fluoro-4-(2,3,5,6-tetrafluorophenoxy)phenyl)-1H-pyrazolo[3,4-d]pyrimidin-1-yl)pyrrolidin-1-yl)prop-2-en-1-one] the “Inh % TMD-8 cell viability” value ([1]; 0.01 μM) was 51.66%, the “Inh % TMD-8 cell viability” value ([1]; 0.1 μM) was 52.40% and the “Inh % TMD-8 cell viability” value ([1]; 1 uM) was 55.05%. For the same molecule, the “AUC compared with ibrutinib” value ([2]; TK data) was “significantly higher than that of ibrutinib”, the Cmax [2, 7] was 2660 ng/mL and the Tmax [2, 7] was 1 h. It also gave an AUC(0-t) [2, 7] of 17300 ng·h/mL, a Cmax [2, 8] of 2970 ng/mL and a Tmax [2, 8] of 1 h. The AUC(0-t) [2, 8] was 17300 ng·h/mL, the Cmax [2, 9] was 3700 ng/mL and the Tmax [2, 9] was 4 h. The AUC(0-t) [2, 9] was 28900 ng·h/mL, the Cmax [2, 10] was 3830 ng/mL and the Tmax [2, 10] was 1 h. For the same molecule, the AUC(0-t) [2, 10] was 29600 ng·h/mL, the Cmax [2, 11] was 4680 ng/mL and the Tmax [2, 11] was 4 h. For the same molecule, the AUC(0-t) [2, 11] was 65200 ng·h/mL, the Cmax [2, 12] was 5490 ng/mL and the Tmax [2, 12] was 8 h. It also gave an AUC(0-t) [2, 12] of 60200 ng·h/mL, a Cmax [2, 13] of 2160 ng/mL and a Tmax [2, 13] of 2 h. For the same molecule, the AUC(0-t) [2, 13] was 13700 ng·h/mL, the Cmax [2, 14] was 2090 ng/mL and the Tmax [2, 14] was 2 h. The AUC(0-t) [2, 14] was 15400 ng·h/mL, the Cmax [2, 15] was 2740 ng/mL and the Tmax [2, 15] was 2 h. The AUC(0-t) [2, 15] was 21700 ng·h/mL, the Cmax [2, 16] was 3990 ng/mL and the Tmax [2, 16] was 2 h. The AUC(0-t) [2, 16] was 30300 ng·h/mL, the Cmax [2, 17] was 4220 ng/mL and the Tmax [2, 17] was 2 h. It also gave an AUC(0-t) [2, 17] of 37600 ng·h/mL, a Cmax [2, 18] of 4540 ng/mL and a Tmax [2, 18] of 2 h. The AUC(0-t) [2, 18] was 45100 ng·h/mL, the Antitumor effect ([3]; 5 mg/kg, 21 days (FIG. 2)) was 33% and the Antitumor effect ([3]; 10 mg/kg, 14 days (FIG. 1)) was 64%. For the same molecule, the Antitumor effect ([3]; 30 mg/kg, 14 days (FIG. 1)) was 82%, the Antitumor effect ([3]; 90 mg/kg, 14 days (FIG. 1)) was 93% and the “TMD-8 tumor growth suppression” value ([3]; multiple doses, p.o., 14 days (FIG. 1)) was “significant TMD-8 tumor growth suppressions were dose-depended”. It also gave an AUC(0-inf) ([4]; IV, 2 mg/kg, mean) of 987 ng·h/mL, an AUC(0-t) ([4]; IV, 2 mg/kg, mean) of 977 ng·h/mL and a C0 ([4]; IV, 2 mg/kg, mean) of 663 ng/mL. For the same molecule, the clearance ([4]; IV, 2 mg/kg, mean) was 34.6 mL/min/kg, the half-life ([4]; IV, 2 mg/kg, mean) was 2.27 h and the Vd [4, 19] was 4.24 L/kg. The bioavailability ([4]; PO, 5 mg/kg) was 26.2%, the AUC(0-inf) ([4]; PO, 5 mg/kg, mean) was 574 ng·h/mL and the AUC(0-t) ([4]; PO, 5 mg/kg, mean) was 650 ng·h/mL. It also gave a Cmax ([4]; PO, 5 mg/kg, mean) of 189 ng/mL, a Tmax ([4]; PO, 5 mg/kg, mean) of 1.17 h and a half-life ([4]; PO, 5 mg/kg, mean) of 2.92 h. The “drug exposure, Day 1 versus Day 28” value [5] was “no significant difference in drug exposure between Day 1 and Day 28”, the “drug exposure, male versus female” value [5] was “no significant difference in drug exposure between male and female” and the AUC(0-inf) ([6]; IV, 2 mg/kg, mean) was 1740 ng·h/mL. The AUC(0-t) ([6]; IV, 2 mg/kg, mean) was 1740 ng·h/mL, the C0 ([6]; IV, 2 mg/kg, mean) was 1390 ng/mL and the clearance ([6]; IV, 2 mg/kg, mean) was 20.2 mL/min/kg. For the same molecule, the half-life ([6]; IV, 2 mg/kg, mean) was 0.787 h, the Vd [6, 19] was 1.61 L/kg and the bioavailability ([6]; PO, 10 mg/kg) was 37.1%. It also gave an AUC(0-inf) ([6]; PO, 10 mg/kg, mean) of 3260 ng·h/mL, an AUC(0-t) ([6]; PO, 10 mg/kg, mean) of 3230 ng·h/mL and a Cmax ([6]; PO, 10 mg/kg, mean) of 641 ng/mL. It also gave a Tmax ([6]; PO, 10 mg/kg, mean) of 1.33 h and a half-life ([6]; PO, 10 mg/kg, mean) of 1.71 h.

— patent publication US9532990B2 (Zhejiang DTRM Biopharma Co. Ltd., priority 2014, dated 2017)
